Assay results taken from US12240816B2, “Deuterated compounds and uses thereof” (Aldeyra Therapeutics, Inc., priority 2015, dated 2025).
Where two headings read alike, the source gives them in different places.

How the values were obtained:
Assay in all cases: biochemical
Type in all cases: biochemical
[1] = target: enzyme and uptake assay panel targets (Table 36) (Homo sapiens, UniProt P12821); details: ACE (h); 1.0E−05M; flag INTER: Test compound interferes with the assay detection method
[2] = target: enzyme and uptake assay panel targets (Table 36) (Homo sapiens, UniProt Q14790); details: caspase-8 (h); 1.0E−05M
Chain of enzyme and uptake assay panel targets (Table 36) (Homo sapiens, UniProt Q14790) (Q14790 217-479): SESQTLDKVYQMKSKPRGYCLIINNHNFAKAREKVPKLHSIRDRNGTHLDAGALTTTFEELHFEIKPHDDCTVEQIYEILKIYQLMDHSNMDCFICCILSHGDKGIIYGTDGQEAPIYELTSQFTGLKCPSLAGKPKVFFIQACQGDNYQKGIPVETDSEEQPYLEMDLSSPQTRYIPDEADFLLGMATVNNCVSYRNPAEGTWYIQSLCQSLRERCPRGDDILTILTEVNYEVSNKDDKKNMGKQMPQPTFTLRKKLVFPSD

[3] = target: enzyme and uptake assay panel targets (Table 36) (Homo sapiens, UniProt Q16539); details: p38α kinase (h); 1.0E−05M
Chain of enzyme and uptake assay panel targets (Table 36) (Homo sapiens, UniProt Q16539) (Q16539 whole entry): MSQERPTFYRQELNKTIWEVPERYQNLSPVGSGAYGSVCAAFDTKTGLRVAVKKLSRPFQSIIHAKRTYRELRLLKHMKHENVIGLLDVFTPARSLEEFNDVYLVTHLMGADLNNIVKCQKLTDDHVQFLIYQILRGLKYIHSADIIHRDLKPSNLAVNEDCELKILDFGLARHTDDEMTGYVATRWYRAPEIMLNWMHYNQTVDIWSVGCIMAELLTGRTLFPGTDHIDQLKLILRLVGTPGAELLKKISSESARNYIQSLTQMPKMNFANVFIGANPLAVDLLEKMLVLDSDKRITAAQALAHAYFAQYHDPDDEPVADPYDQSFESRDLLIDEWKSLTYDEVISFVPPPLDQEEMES

[4] = target: enzyme and uptake assay panel targets (Table 36) (Homo sapiens, UniProt P06241); details: Fyn kinase (h); 1.0E−05M
Chain of enzyme and uptake assay panel targets (Table 36) (Homo sapiens, UniProt P06241) (P06241 whole entry): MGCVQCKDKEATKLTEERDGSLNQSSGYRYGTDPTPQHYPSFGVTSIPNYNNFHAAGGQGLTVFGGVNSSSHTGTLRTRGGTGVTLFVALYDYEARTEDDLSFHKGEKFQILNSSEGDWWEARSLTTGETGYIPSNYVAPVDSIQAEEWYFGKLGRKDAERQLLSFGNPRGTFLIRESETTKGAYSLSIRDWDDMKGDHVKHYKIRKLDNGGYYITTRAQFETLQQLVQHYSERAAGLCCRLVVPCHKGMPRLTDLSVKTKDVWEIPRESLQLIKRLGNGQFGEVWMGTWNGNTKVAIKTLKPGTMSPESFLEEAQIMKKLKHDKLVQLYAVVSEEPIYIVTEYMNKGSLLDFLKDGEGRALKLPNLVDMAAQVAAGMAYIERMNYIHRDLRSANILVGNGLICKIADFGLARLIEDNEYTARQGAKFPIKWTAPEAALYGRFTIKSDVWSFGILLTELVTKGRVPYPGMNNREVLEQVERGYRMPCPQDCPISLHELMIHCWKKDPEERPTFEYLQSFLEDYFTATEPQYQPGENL

[5] = system: enzyme and uptake assay panel targets (Table 36); details: COMT (catechol-O-methyl transferase); 1.0E−05M; flag INTER: Test compound interferes with the assay detection method
[6] = target: enzyme and uptake assay panel targets (Table 36) (Homo sapiens, UniProt Q9BYF1); details: ACE-2 (h); 1.0E−05M; flag INTER: Test compound interferes with the assay detection method
[7] = target: enzyme and uptake assay panel targets (Table 36) (Homo sapiens, UniProt P28482); details: ERK2 (h) (P42^mapk); 1.0E−05M
Chain of enzyme and uptake assay panel targets (Table 36) (Homo sapiens, UniProt P28482) (P28482 whole entry): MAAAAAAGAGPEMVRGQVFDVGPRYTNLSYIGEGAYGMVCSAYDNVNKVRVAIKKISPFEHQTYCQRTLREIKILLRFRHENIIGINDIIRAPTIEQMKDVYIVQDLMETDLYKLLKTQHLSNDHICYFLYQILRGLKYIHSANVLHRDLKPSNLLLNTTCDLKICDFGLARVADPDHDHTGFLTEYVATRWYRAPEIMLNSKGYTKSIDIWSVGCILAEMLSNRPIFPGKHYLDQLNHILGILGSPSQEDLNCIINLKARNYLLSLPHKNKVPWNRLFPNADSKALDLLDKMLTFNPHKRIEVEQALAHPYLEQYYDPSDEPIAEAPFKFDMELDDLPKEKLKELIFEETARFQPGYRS

[8] = system: T1, enzyme and uptake assay panel targets (Table 36); details: ATPase (Na+/K+); 1.0E−05M
T1 construct: other: ATPase (Na+/K+); 1.0E−05M; nH; porcine cerebral cortex

[9] = target: enzyme and uptake assay panel targets (Table 36) (Homo sapiens, UniProt O76074); details: PDE5 (h) (non-selective); 1.0E−05M
[10] = target: T2, enzyme and uptake assay panel targets (Table 36) (Bos taurus, UniProt P80457); details: xanthine oxldase/superoxide 02 ^−scavenging, 1.0E−05M
T2 construct: other: xanthine oxidase/superoxide 02^−scavenging; nH; other: xanthine oxldase/superoxide 02 ^−scavenging; 1.0E−05M; ot; purified xanthine oxidase from bovine milk

[11] = target: enzyme and uptake assay panel targets (Table 36) (Homo sapiens, UniProt P09917); details: 5-lipoxygenase (h); 1.0E−05M
Chain of enzyme and uptake assay panel targets (Table 36) (Homo sapiens, UniProt P09917) (P09917 whole entry): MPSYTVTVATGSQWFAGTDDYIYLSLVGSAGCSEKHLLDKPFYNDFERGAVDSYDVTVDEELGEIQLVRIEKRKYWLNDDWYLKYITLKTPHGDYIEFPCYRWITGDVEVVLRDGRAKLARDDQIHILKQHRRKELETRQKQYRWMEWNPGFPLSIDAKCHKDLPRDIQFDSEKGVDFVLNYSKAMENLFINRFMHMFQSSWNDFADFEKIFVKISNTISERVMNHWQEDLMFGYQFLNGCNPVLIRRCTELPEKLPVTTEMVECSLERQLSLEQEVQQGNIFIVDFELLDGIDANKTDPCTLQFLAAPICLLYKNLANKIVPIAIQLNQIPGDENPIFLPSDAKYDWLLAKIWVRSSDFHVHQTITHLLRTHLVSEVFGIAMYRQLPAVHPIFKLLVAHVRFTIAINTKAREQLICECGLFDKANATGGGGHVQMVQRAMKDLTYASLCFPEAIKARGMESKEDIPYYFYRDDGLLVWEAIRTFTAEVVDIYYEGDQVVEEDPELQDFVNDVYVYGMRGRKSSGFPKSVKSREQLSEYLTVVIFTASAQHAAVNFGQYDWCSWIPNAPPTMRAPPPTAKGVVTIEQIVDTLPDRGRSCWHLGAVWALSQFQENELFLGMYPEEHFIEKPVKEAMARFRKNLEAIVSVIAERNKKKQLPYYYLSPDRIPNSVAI

[12] = target: enzyme and uptake assay panel targets (Table 36) (Homo sapiens, UniProt P24941); details: CDK2 (h) (cycA); 1.0E−05M
[13] = target: enzyme and uptake assay panel targets (Table 36) (Homo sapiens, UniProt P18054); details: 12-lipoxygenase (h); 1.0E−05M
[14] = target: enzyme and uptake assay panel targets (Table 36) (Homo sapiens, UniProt P35354); details: COX2(h); 1.0E−05M
Chain of enzyme and uptake assay panel targets (Table 36) (Homo sapiens, UniProt P35354) (P35354 18-604): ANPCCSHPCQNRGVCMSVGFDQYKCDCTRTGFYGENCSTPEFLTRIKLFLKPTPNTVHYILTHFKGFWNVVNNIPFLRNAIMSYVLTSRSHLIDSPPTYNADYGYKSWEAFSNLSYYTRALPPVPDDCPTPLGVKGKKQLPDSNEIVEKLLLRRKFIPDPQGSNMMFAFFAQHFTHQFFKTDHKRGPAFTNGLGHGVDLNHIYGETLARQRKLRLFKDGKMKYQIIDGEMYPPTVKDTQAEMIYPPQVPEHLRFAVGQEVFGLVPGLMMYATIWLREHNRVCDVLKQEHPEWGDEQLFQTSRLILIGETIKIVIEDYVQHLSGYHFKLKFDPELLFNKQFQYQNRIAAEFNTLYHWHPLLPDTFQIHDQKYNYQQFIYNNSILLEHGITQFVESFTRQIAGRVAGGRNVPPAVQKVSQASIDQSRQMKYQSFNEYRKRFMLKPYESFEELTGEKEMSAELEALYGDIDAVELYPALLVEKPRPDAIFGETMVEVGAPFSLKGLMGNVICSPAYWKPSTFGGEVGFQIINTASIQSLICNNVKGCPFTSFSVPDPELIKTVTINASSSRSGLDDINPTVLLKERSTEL

[15] = target: enzyme and uptake assay panel targets (Table 36) (Homo sapiens, UniProt P23219); details: COX1(h); 1.0E−05M
Chain of enzyme and uptake assay panel targets (Table 36) (Homo sapiens, UniProt P23219) (P23219 24-599): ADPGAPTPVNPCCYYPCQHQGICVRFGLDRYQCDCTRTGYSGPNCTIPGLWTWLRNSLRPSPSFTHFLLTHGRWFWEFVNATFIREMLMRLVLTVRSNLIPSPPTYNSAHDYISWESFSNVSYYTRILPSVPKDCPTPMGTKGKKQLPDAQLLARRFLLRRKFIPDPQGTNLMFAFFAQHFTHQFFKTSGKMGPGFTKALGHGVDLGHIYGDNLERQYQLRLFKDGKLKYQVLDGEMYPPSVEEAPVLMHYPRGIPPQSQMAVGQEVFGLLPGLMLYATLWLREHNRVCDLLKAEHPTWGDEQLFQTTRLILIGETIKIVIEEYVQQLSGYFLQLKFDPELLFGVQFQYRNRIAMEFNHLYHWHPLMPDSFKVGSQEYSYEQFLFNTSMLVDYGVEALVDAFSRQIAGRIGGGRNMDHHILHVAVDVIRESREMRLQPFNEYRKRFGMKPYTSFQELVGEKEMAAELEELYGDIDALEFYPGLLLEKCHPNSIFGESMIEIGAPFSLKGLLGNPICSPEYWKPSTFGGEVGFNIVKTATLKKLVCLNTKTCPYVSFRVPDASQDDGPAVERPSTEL

[16] = target: enzyme and uptake assay panel targets (Table 36) (Homo sapiens, UniProt P00519); details: Abl kinase (h); 1.0E−05M
Chain of enzyme and uptake assay panel targets (Table 36) (Homo sapiens, UniProt P00519) (P00519 whole entry): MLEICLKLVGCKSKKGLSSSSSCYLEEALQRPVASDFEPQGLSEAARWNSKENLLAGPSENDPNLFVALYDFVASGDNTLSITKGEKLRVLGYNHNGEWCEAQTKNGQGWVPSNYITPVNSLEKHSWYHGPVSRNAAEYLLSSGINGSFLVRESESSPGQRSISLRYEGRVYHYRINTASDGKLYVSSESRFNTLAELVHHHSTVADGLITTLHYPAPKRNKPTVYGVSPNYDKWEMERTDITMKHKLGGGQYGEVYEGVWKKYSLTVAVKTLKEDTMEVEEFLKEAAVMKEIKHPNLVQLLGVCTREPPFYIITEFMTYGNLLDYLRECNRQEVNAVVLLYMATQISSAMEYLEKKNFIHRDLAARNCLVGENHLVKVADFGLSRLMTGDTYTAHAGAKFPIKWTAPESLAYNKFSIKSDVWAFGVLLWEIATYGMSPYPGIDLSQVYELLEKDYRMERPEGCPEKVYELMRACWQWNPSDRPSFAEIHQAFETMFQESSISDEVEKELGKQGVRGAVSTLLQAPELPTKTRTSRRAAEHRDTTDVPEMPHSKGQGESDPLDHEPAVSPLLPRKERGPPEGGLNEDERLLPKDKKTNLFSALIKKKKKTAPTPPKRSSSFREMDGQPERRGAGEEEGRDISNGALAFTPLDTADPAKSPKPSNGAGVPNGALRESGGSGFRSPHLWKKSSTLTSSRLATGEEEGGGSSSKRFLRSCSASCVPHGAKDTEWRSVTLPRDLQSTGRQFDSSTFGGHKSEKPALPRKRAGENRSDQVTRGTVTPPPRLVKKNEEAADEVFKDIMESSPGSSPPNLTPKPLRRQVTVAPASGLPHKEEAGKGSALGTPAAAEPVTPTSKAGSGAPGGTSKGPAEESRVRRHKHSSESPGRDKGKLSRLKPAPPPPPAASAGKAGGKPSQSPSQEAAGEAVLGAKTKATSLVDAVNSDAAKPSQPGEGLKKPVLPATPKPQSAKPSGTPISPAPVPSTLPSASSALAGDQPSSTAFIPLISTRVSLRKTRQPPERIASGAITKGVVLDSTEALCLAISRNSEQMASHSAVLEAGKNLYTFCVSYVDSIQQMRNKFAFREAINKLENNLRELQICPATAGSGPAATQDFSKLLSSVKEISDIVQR

[17] = target: enzyme and uptake assay panel targets (Table 36) (Homo sapiens, UniProt P27338); details: MAO-B (h) recombinant enzyme; 1.0E−05M
Chain of enzyme and uptake assay panel targets (Table 36) (Homo sapiens, UniProt P27338) (P27338 whole entry): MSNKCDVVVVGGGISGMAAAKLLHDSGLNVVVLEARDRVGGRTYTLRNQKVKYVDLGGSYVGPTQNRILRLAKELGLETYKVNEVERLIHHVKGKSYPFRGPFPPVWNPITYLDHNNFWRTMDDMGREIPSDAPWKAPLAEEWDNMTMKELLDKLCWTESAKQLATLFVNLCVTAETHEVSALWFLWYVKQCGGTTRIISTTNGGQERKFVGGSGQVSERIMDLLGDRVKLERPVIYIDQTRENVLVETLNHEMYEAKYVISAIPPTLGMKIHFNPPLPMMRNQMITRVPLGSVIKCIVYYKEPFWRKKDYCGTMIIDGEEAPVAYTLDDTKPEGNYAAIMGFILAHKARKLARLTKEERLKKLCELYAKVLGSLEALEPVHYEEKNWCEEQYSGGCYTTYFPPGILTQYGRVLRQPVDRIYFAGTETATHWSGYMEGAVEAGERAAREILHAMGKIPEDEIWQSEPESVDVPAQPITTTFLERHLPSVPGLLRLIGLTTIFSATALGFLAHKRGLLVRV

In the case of `[2H]C([2H])([2H])C(O)(c1nc2ccc(Cl)cc2cc1N)C([2H])([2H])[2H]` [Compound I-1], the “% inhibition of Control Values 1st” value [1] is reported as 127.6%, the “% inhibition of Control Values 2nd” value [1] is reported as 131.0% and the “% inhibition of Control Values Mean” value [1] is reported as 129.3%. For the same molecule, the “% inhibition of Control Values 1st” value [2] was 14.7%, the “% inhibition of Control Values 2nd” value [2] was 16.4% and the “% inhibition of Control Values Mean” value [2] was 15.6%. For the same molecule, the “% inhibition of Control Values 1st” value [3] was −3.2%, the “% inhibition of Control Values 2nd” value [3] was −3.1% and the “% inhibition of Control Values Mean” value [3] was −3.2%. For the same molecule, the “% inhibition of Control Values 1st” value [4] was −8.6%, the “% inhibition of Control Values 2nd” value [4] was −0.3% and the “% inhibition of Control Values Mean” value [4] was −4.5%. The “% inhibition of Control Values 1st” value [5] was 5.8%, the “% inhibition of Control Values 2nd” value [5] was 14.7% and the “% inhibition of Control Values Mean” value [5] was 10.3%. For the same molecule, the “% inhibition of Control Values 1st” value [6] was 23.8%, the “% inhibition of Control Values 2nd” value [6] was 26.2% and the “% inhibition of Control Values Mean” value [6] was 25.0%. For the same molecule, the “% inhibition of Control Values 1st” value [7] was −6.3%, the “% inhibition of Control Values 2nd” value [7] was −1.3% and the “% inhibition of Control Values Mean” value [7] was −3.8%. The “% inhibition of Control Values 1st” value [8] was 5.2%, the “% inhibition of Control Values 2nd” value [8] was −0.4% and the “% inhibition of Control Values Mean” value [8] was 2.4%. The “% inhibition of Control Values 1st” value [9] was −8.6%, the “% inhibition of Control Values 2nd” value [9] was −2.9% and the “% inhibition of Control Values Mean” value [9] was −5.7%. It also gave an inhibition at 10 µM ([10]; read-out: % inhibition of Control Values 1st) of -3.1%, an inhibition at 10 µM ([10]; read-out: % inhibition of Control Values 2nd) of 15.6% and an inhibition at 10 µM ([10]; read-out: % inhibition of Control Values Mean) of 6.3%. For the same molecule, the “% inhibition of Control Values 1st” value [11] was 23.5%, the “% inhibition of Control Values 2nd” value [11] was 24.8% and the “% inhibition of Control Values Mean” value [11] was 24.2%. For the same molecule, the “% inhibition of Control Values 1st” value [12] was 1.2%, the “% inhibition of Control Values 2nd” value [12] was −5.1% and the “% inhibition of Control Values Mean” value [12] was −1.9%. For the same molecule, the “% inhibition of Control Values 1st” value [13] was −9.4%, the “% inhibition of Control Values 2nd” value [13] was −4.1% and the “% inhibition of Control Values Mean” value [13] was −6.7%. The “% inhibition of Control Values 1st” value [14] was 12.8%, the “% inhibition of Control Values 2nd” value [14] was 3.0% and the “% inhibition of Control Values Mean” value [14] was 7.9%. For the same molecule, the “% inhibition of Control Values 1st” value [15] was 20.1%, the “% inhibition of Control Values 2nd” value [15] was −2.6% and the “% inhibition of Control Values Mean” value [15] was 8.8%. For the same molecule, the “% inhibition of Control Values 1st” value [16] was −4.8%, the “% inhibition of Control Values 2nd” value [16] was −11.6% and the “% inhibition of Control Values Mean” value [16] was −8.2%. For the same molecule, the “% inhibition of Control Values 1st” value [17] was −3.1%, the “% inhibition of Control Values 2nd” value [17] was −3.7% and the “% inhibition of Control Values Mean” value [17] was −3.4%.
